# pIC50: −log10 of the molar value.
# Columns and labels:
# [1] = test system: TNF-α; experiment: Inhibition of LPS induced TNF-α production in mice in vivo; conditions: Female Balb/c mice, subcutaneous, LPS 50 µg/mouse i.p. after 1 h, serum TNF-α 1.5 h later
# Procedure: The activity of compounds of this invention in inhibiting the TNF-α release was determined, using a minor modification of the methods described in Zanetti, G.; Heumann, D., et. al., "Cytokine production after intravenous or peritoneal Gram-negative bacterial challenge in mice" J. Immunol., 148, 1890, (1992) and Sekut, L., Menius, J.A., et. al., "Evaluation if the significance of elevated levels of systemic and localized tumor necrosis factor in different animal models of inflammation" J. Lab. Clin. Med., 124, 813, (1994).
# Female Balb/c mice were anesthetized and injected subcutaneously with the test compounds dissolved in CMC vehicle or hydroxypropylmethyl cellulose based vehicle. Control animals received only the vehicle. After 1 h, LPS (50 µg/ mouse, Sigma #13129, Sigma Chemical Co., St. Louis, MO) was injected intraperitoneally. After 1.5 h, blood was collected from the retro-orbital plexus region of the animals in a microtainer serum separator tube (Becton Dickinson, Cat. No. #5960, Becton Dickinson & Co., Franklin Lakes, NJ). The sera was separated and the amount of TNF-α was determined using the EM-TNFA® kit (Endogen, Woburn, MA) by following the manufacturer's protocol.
# [2] = test system: collagen matrix; experiment: Degradation of cartilage plug in vitro (IL-1-α stimulated cartilage explants, hydroxyproline content); assay type: cell-based; conditions: bovine cartilage explants stimulated with IL-1-α 20 ng/ml, 21 days; compounds at concentrations between 10 and 300 nm; hydroxyproline content relative to control
# Procedure: The ability of the compounds of this invention to inhibit the degradation of the collagen matrix (as judged by release of hydroxyproline) was determined by the cartilage plug degradation assay in vitro by following a slight modification of the method described in Spirito, S., Doughty, E., et al., "Metalloproteinase inhibitors halt collagen breakdown in IL-1 induced bovine nasal cartilage cultures" Inflamm.
# The cultures were stimulated with IL-1-α at a final concentration of 20 ng/ml. Compounds of Formula (I), were added at concentrations between 10 and 300 nm in DMSO. The control samples contained only IL-1-α. […] The cartilage plugs were removed, hydrolyzed and the hydroxyproline content was determined. The MMP inhibitory activity of test materials is the measure of the hydroxyproline content in the test group relative to the vehicle treated group (control group).
# [3] = test system: collagen matrix; experiment: Cartilage plug degradation in vivo (cartilage plug implant assay, hydroxyproline content); conditions: cartilage plug implant in female Lewis rats, terminated after 8 or 9 days; hydroxyproline content relative to vehicle group
# [4] = test system: TNF; experiment: Inhibition of TNF release in vitro (LPS/PMA stimulated Monomac 6 cells); assay type: cell-based; conditions: Homo sapiens, MONO-MAC-6, Conc. 10 µM, 2 h
# Procedure: The activity of compounds of this invention in inhibiting the TNF release was determined, using the a minor modification of the method described in Pradines-Figueres, A. and Raetz, C.R.H., J. Biol. Chem., 267 (32), 23261, (1992).
# Human Monomac 6 cells (Ziegler-Heitbrock, H.W.L., et al., Int. J. Cancer, 41, 456, (1988)) were cultured at 37 °C in RPMI 1640 medium containing 10% fetal calf serum to a density of 1 x 10^5 cells/ml. 0.23 ml of these cells were placed in each well of a tissue culture plate and the cells were incubated for 15 min. The test compounds were dissolved in above mentioned medium and added and the incubation was continued for an additional 15 min. 10 µl of an lipopolysaccharide/phorbol-12-myristate -13-acetate (LPS/PMA) mixture was added such that the final concentration of lipopolysaccharide was 10 ng/ml and the final concentration of phorbol-12-myristate -13-acetate was 30 ng/ml. The cells were incubated for 2 h after which the plate was centrifuged and the medium was removed and analyzed for TNF content. The analysis was performed using a TNF Quantikine® Immunoassay (R & D Systems, Minneapolis, MN 55413) by following the manufacturer's protocol.
# [5] = target: human collagenase-1; experiment: Inhibition of matrix metalloproteases in vitro: collagenase-1; assay type: biochemical; conditions: hydrolysis of MCA-Pro-Leu-Gly-Leu-DPA-Ala-Arg-NH2 at 37 °C; read-out: Collagenase-I IC50
# Procedure: The matrix metalloprotease enzyme was diluted with assay buffer (50 mM Tricine pH 7.5, 200 mM NaCl, 10 mM CaCl2, and 0.005% Brij-35) containing 10 µmole of above substrate dissolved in DMSO.
# [6] = target: human collagenase-3; experiment: Inhibition of matrix metalloproteases in vitro: human collagenase-3; assay type: biochemical; conditions: hydrolysis of MCA-Pro-Leu-Gly-Leu-DPA-Ala-Arg-NH2 at 37 °C; species of collagenase-III not given
Compound,% inhibition [1],% protection [3],further results
O=C(NO)C1CCCCN1S(=O)(=O)N1CCN(c2ccc(Cl)cc2)CC1 (racemic) [compound 234],46%,,
O=C(NO)[C@H]1CCCCN1S(=O)(=O)N1CCCC1 [compound 232],73%,,
CC(C)[C@@H](NS(=O)(=O)N1CCN(c2ccc(Cl)cc2)CC1)C(=O)NO [compound 51],,45%,% protection [2]: 35%
"CC(C)[C@H](C(=O)NO)N(Cc1ccccc1)S(=O)(=O)N1CCCCC1 [compound 1, N-hydroxy-2-(R)-[benzyl-(piperidine-1-sulfonyl)amino]-3-methylbutyramide]",,,inhibition at 10 µM [4]: < 15%
CN(C)C(=O)N1CCN(S(=O)(=O)N2CCC(c3c[nH]c4c(F)c(F)c(F)c(F)c34)CC2)[C@@H](C(=O)NO)C1 [compound 309],46%,,
N#Cc1ccc2[nH]cc(C3CCN(S(=O)(=O)N4CCCC[C@@H]4C(=O)NO)CC3)c2c1 [compound 294],90%,,
O=C(c1ccc(Cl)cc1)C1CCN(S(=O)(=O)N2CCCC[C@@H]2C(=O)NO)CC1 [compound 242],,,% protection [2]: 27%
CC(C)[C@@H](NS(=O)(=O)N1CCN(c2ccc(Cl)cn2)CC1)C(=O)NO [compound 50],,70%,% protection [2]: 71%
CC(C)[C@@H](NS(=O)(=O)N1CCN(c2ccc(OCc3ccncc3)cc2)CC1)C(=O)O [compound 413],,,pIC50 [5]: 5.03; pIC50 [6]: 6.59
"CC(C)[C@@H](NS(=O)(=O)N1CCN(c2ccc(OCc3ccccc3)cc2)CC1)C(=O)NO [compound 74, N-hydroxy-2-(R)-{[4-(4-benzyloxyphenyl)piperazine-1-sulfonyl]amino}-3-methylbutyramide]",,46%,inhibition at 10 µM [4]: 17%
CC(C)[C@@H](NS(=O)(=O)N1CCC(Oc2ccc(F)cc2)CC1)C(=O)NO [compound 179],,63%,
O=CN1CCN(S(=O)(=O)N2CCC(C(=O)c3ccc(Cl)cc3)CC2)C(C(=O)NO)C1 (stereo not shown) [compound 262],50%,,
